Key:
EHMT1 = target: T1, EHMT1 (Homo sapiens, UniProt Q9H9B1); test: EHMT1 enzyme assay on peptide substrate (EHMT1 PEP); type: biochemical; conditions: Table III; read-out: EHMT1 PEP (IC50 μM)
T1 sequence (Q9H9B1 1-1298): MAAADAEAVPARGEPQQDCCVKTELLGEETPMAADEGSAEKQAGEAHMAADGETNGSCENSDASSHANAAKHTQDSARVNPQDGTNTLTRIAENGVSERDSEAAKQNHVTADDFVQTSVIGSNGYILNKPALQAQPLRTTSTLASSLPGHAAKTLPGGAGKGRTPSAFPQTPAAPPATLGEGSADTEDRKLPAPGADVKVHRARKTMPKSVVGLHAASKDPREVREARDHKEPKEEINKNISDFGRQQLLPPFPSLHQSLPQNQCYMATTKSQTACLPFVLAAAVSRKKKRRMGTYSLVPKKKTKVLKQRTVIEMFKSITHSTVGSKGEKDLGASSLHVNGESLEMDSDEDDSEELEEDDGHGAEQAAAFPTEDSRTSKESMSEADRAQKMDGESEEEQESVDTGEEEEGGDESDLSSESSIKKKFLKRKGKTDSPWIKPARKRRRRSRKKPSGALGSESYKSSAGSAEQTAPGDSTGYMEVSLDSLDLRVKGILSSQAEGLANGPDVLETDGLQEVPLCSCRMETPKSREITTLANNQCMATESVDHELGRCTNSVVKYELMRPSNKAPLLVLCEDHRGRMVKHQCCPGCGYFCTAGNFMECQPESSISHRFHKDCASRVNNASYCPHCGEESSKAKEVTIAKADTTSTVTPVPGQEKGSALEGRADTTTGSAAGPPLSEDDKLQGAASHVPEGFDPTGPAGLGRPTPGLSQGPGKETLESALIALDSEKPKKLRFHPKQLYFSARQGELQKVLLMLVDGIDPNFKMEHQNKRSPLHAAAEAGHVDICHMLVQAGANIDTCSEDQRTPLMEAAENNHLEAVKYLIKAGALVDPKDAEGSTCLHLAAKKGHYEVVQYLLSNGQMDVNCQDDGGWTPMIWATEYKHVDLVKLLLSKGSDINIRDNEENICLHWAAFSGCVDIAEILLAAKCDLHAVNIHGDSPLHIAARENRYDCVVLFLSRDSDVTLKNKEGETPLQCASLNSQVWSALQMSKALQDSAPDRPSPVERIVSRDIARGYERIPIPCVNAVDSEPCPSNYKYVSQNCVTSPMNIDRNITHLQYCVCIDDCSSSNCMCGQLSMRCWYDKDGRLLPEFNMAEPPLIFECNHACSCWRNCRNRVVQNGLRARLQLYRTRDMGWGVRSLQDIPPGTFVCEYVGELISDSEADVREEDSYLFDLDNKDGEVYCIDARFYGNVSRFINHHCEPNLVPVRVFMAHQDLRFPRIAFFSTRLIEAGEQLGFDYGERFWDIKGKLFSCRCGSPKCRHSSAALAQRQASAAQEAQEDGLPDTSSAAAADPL

human EHMT2 913-1193 = target: T2, human EHMT2 913-1193 (Homo sapiens, UniProt Q96KQ7); test: EHMT2 enzyme assay on histone peptide substrate (EHMT2 PEP); type: biochemical; conditions: Table III; read-out: EHMT2 PEP (IC50 μM)
T2 construct: recombinant purified human EHMT2 913-1193, Viva; purchased Viva
T2 sequence (Q96KQ7 913-1193): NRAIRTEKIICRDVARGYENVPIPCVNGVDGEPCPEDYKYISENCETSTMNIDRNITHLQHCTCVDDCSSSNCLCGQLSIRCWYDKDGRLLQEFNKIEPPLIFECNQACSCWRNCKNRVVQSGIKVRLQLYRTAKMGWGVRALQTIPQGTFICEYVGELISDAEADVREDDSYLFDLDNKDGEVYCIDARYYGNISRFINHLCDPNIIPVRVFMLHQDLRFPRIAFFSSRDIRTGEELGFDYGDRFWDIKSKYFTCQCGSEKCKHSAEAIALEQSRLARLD
How it was run: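 10-pt 3-fold series, 50 μM top final, 2% DMSO; 30 min preinc w/ 0.031 nM enzyme; pH 7.5 Bicine/TCEP buffer; ^3H-SAM + biotin-histone peptide, 60 min RT; SAM quench; streptavidin Flashplate capture, TopCount.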

For `CNc1ccnc(Nc2ccc(OC)c(OCc3noc(C4CC4)n3)c2)n1` [Compound 433, N^2-(3-((5-cyclopropyl-1,2,4-oxadiazol-3-yl)methoxy)-4-methoxyphenyl)-N^4-methylpyrimidine-2,4-diamine], the IC50 (EHMT1) was 1 to 10 µM and the IC50 (human EHMT2 913-1193) was > 10 µM.
For `CNc1ccnc(Nc2ccc(OC)c(OCc3cn(C4CC4)nn3)c2)n1` [Compound 434, N^2-(3-((1-cyclopropyl-1H-1,2,3-triazol-4-yl)methoxy)-4-methoxyphenyl)-N^4-methylpyrimidine-2,4-diamine], the IC50 (EHMT1) was > 10 µM and the IC50 (human EHMT2 913-1193) was > 10 µM.
Work on `CNc1cc(C)nc(Nc2ccc(OC)c(OCC3CCN(C)CC3)c2)n1` [Compound 435, N^2-(4-methoxy-3-((1-methylpiperidin-4-yl)methoxy)phenyl)-N^4,6-dimethylpyrimidine-2,4-diamine] yielded an IC50 (EHMT1) of 1 to 10 µM and an IC50 (human EHMT2 913-1193) of 1 to 10 µM.
`CNc1cc(C)nc(Nc2ccc(OC)c(OCC3CCN(CC4CC4)CC3)c2)n1` [Compound 436, N^2-(3-((1-(cyclopropylmethyl)piperidin-4-yl)methoxy)-4-methoxyphenyl)-N^4,6-dimethylpyrimidine-2,4-diamine] was tested, and the IC50 (EHMT1) was > 10 µM and the IC50 (human EHMT2 913-1193) was 1 to 10 µM.
`CNc1cc(C)nc(Nc2ccc(OC)c(OCC3CNC3)c2)n1` [Compound 437, N^2-(3-(azetidin-3-ylmethoxy)-4-methoxyphenyl)-N^4,6-dimethylpyrimidine-2,4-diamine] was tested, and the IC50 (EHMT1) was < 0.1 µM and the IC50 (human EHMT2 913-1193) was 0.1 to 1 µM.
For `CNc1ccnc(Nc2ccc(OC)c(OCCOC3CCCC3)c2)n1` [Compound 440, N^2-(3-(2-(cyclopentyloxy)ethoxy)-4-methoxyphenyl)-N^4-methylpyrimidine-2,4-diamine], the IC50 (EHMT1) was > 10 µM and the IC50 (human EHMT2 913-1193) was > 10 µM.
With `CNc1cc(COC)nc(Nc2ccc(OC)c(OCCCN3CCCC3)c2)n1` [Compound 441, N^2-(4-methoxy-3-(3-(pyrrolidin-1-yl)propoxy)phenyl)-6-(methoxymethyl)-N^4-methylpyrimidine-2,4-diamine] the IC50 (EHMT1) was 0.1 to 1 µM and the IC50 (human EHMT2 913-1193) was 0.1 to 1 µM.
`CNc1cc(C)nc(Nc2ccc(OC)c(OCC3CN(C)C3)c2)n1` [Compound 442, N^2-(4-methoxy-3-((1-methylazetidin-3-yl)methoxy)phenyl)-N^4,6-dimethylpyrimidine-2,4-diamine] was tested, and the IC50 (EHMT1) was < 0.1 µM and the IC50 (human EHMT2 913-1193) was < 0.1 µM.
`CNc1cc(C)nc(Nc2ccc(OC)c(OC3CCN(CC4CC4)CC3)c2)n1` [Compound 443] was tested, and the IC50 (EHMT1) was > 10 µM and the IC50 (human EHMT2 913-1193) was > 10 µM.
For `CCN1CC(COc2cc(Nc3nc(C)cc(NC)n3)ccc2OC)C1` [Compound 444], the IC50 (EHMT1) was < 0.1 µM and the IC50 (human EHMT2 913-1193) was < 0.1 µM.
`CNc1cc(C)nc(Nc2ccc(OC)c(OCC3CN(CC4CC4)C3)c2)n1` [Compound 445, N^2-(3-((1-(cyclopropylmethyl)azetidin-3-yl)methoxy)-4-methoxyphenyl)-N^4,6-dimethylpyrimidine-2,4-diamine] showed an IC50 (EHMT1) of 0.1 to 1 µM and an IC50 (human EHMT2 913-1193) of 0.1 to 1 µM.
In the case of `CNc1cc(C)nc(Nc2ccc(OC)c(OCC3CCN(C4CCC4)C3)c2)n1` (stereo not drawn) [Compound 446, N^2-(3-((1-cyclobutylpyrrolidin-3-yl)methoxy)-4-methoxyphenyl)-N^4,6-dimethylpyrimidine-2,4-diamine], the IC50 (EHMT1) was < 0.1 µM and the IC50 (human EHMT2 913-1193) was < 0.1 µM.
In the case of `COc1ccc(Nc2nc(C)cc(O)n2)cc1OCCCN1CCCC1` [Compound 447, 2-((4-methoxy-3-(3-(pyrrolidin-1-yl)propoxy)phenyl)amino)-6-methylpyrimidin-4-ol], the IC50 (EHMT1) was > 10 µM and the IC50 (human EHMT2 913-1193) was > 10 µM.
For `COc1ccc(Nc2cc(C)nc(O)n2)cc1OCCCN1CCCC1` [Compound 448, 4-((4-methoxy-3-(3-(pyrrolidin-1-yl)propoxy)phenyl)amino)-6-methylpyrimidin-2-ol], the IC50 (EHMT1) was > 10 µM and the IC50 (human EHMT2 913-1193) was > 10 µM.
Work on `CNc1cc(C)nc(Nc2ccc(OC)c(OCC3CCN(C4COC4)C3)c2)n1` (stereo not drawn) [Compound 449, N^2-(4-methoxy-3-((1-(oxetan-3-yl)pyrrolidin-3-yl)methoxy)phenyl)-N^4,6-dimethylpyrimidine-2,4-diamine] yielded an IC50 (EHMT1) of 0.1 to 1 µM and an IC50 (human EHMT2 913-1193) of 0.1 to 1 µM.
With `CNc1cc(N2CCCC2)nc(Nc2ccc(OC)c(OCCCN3CCCC3)c2)n1` [Compound 450, N^2-(4-methoxy-3-(3-(pyrrolidin-1-yl)propoxy)phenyl)-N^4-methyl-6-(pyrrolidin-1-yl)pyrimidine-2,4-diamine] the IC50 (EHMT1) was > 10 µM and the IC50 (human EHMT2 913-1193) was 1 to 10 µM.
With `COc1ccc(Nc2nc(C)cc(NCC3CCOCC3)n2)cc1OCC1CCN(C)C1` (stereo not drawn) [Compound 451, N^2-(4-methoxy-3-((1-methylpyrrolidin-3-yl)methoxy)phenyl)-6-methyl-N^4-((tetrahydro-2H-pyran-4-yl)methyl)pyrimidine-2,4-diamine] the IC50 (EHMT1) was < 0.1 µM and the IC50 (human EHMT2 913-1193) was 0.1 to 1 µM.
With `CNc1cc(C)nc(Nc2ccc(OC)c(OCC3CCCO3)c2)n1` (stereo not drawn) [Compound 452, N^2-(4-methoxy-3-((tetrahydrofuran-2-yl)methoxy)phenyl)-N^4,6-dimethylpyrimidine-2,4-diamine] the IC50 (EHMT1) was 1 to 10 µM and the IC50 (human EHMT2 913-1193) was > 10 µM.
